Source: paper PMC4848905, “Fragment Screening of Human Aquaporin 1” (International Journal of Molecular Sciences, 2016)

T1: hAQP1 (Homo sapiens, UniProt P29972)
T1 construct: made in house; host or cells: Spodoptera frugiperda (Sf9) insect cells, baculovirus vector pFB-LIC-Bse
T1 sequence (P29972 1-269): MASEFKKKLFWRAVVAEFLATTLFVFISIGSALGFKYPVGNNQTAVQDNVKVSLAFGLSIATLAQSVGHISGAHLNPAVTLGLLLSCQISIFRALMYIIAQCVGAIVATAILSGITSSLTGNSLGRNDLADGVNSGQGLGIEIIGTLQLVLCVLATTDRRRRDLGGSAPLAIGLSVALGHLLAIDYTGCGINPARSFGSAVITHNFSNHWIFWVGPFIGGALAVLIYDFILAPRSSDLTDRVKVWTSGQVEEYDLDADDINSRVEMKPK


How the values were obtained:
hAQP1 = target: T1, hAQP1; set-up: method as in PMID 26028295; details: 30 µM; cited from earlier work
human red blood cells = test system: human red blood cells; set-up: method as in PMID 26028295; details: cited from earlier work
[1] = target: the molecule itself; experiment: SEC; gel filtration on HiLoad 16/600 Superdex 200 prep grade at 4 °C; 20 mM Tris-HCl pH 8, 300 mM NaCl, 1% OG; major peak at 70 mL
[2] = target: the molecule itself; experiment: native gel or EMSA; blue-native PAGE (4%-16% Bis-Tris gel, 4 °C) of purified protein in sample buffer with 100 mM OG, 750 mM aminocaproic acid, 50 mM Bis-Tris HCl pH 7.0, 0.5 mM EDTA

Molecule	stabilization of hAQP1 (hAQP1) [°C]	overall amplitude of the traces (human red blood cells)	rate constant in the RBC assays (human red blood cells)	stoichiometry N [1]	stoichiometry N [2]
O=[N+]([O-])c1ccc2c(c1)/C(=N/N=C1c3ccccc3Cc3ccccc31)c1cc([N+](=O)[O-])cc([N+](=O)[O-])c1-2 [NSC658139]	≤ 13	strong reduction in overall amplitude	did not reduce the rate constant		
human aquaporin 1 (6His-TEV-hAQP1) (natural protein, UniProt P29972 1-269, looked up, human aquaporin 1, full-length cDNA cloned in pFB-LIC-Bse downstream of an N-terminal 6His and TEV protease cleavage site; No TEV cleavage is described; An octamer band is also assigned in BN-PAGE; also called recombinant hAQP1; source: Sf9 (Spodoptera frugiperda) insect cells, purified (Ni-NTA, gel filtration) in n-octyl-β-D-glucopyranoside) MASEFKKKLFWRAVVAEFLATTLFVFISIGSALGFKYPVGNNQTAVQDNVKVSLAFGLSIATLAQSVGHISGAHLNPAVTLGLLLSCQISIFRALMYIIAQCVGAIVATAILSGITSSLTGNSLGRNDLADGVNSGQGLGIEIIGTLQLVLCVLATTDRRRRDLGGSAPLAIGLSVALGHLLAIDYTGCGINPARSFGSAVITHNFSNHWIFWVGPFIGGALAVLIYDFILAPRSSDLTDRVKVWTSGQVEEYDLDADDINSRVEMKPK				4	8
